Reference: US5688789A, “PCP receptor ligands and the use thereof” (State of Oregon, acting by and through the Oregon State …, priority 1995, dated 1997)

How the values were obtained:
[1] = target: PCP receptor; experiment: PCP receptor affinity of IDDC analogs vs. [3H]MK-801 in rat brain membrane (Example 10, Table 2); conditions: read-out: PCP Receptor Affinity IC50 in Rat Brain Membrane vs. [3H]MK-801, MEAN
[2] = target: PCP receptor; experiment: PCP receptor binding against 3H-MK-801 (Example 5, Table 1); conditions: for IC50: vs. 3H-MK-801, ± sem (n)
Method: The PCP receptor binding properties of various compounds of the invention against ^3 H-5-methyl-10,11-dihydro-5H-dibenzo[a,d]cycloheptene-5,10-imine (^3 H-MK-801) were determined.

[3] = test system: NMDA receptor-ion channel complex; experiment: Whole-cell patch clamp: block of NMDA-induced currents on cultured rat hippocampal neurons (Example 6); type: cell-based; conditions: for inward current on serial applications with NMDA: 10 uM compound with NMDA; for recovery from inhibition of NMDA current: after 10 uM compound
Method: In the electrophysiological studies the compounds are evaluated with respect to their ability to block the ion channel of the NMDA receptor channel complex and thereby inhibit Ca^2+ and Na^+ ion flow into the nerve cell. Initially, the ion channels are opened by activating the NMDA receptor. Ion flow is determined by measuring the passage of electrical current, i.e., a use-dependent decrease in electrical current indicates blocking of the ion channel due to binding of a ligand at a site within the channel.
Hippocampal neurons were obtained from the CA1 region of the hippocampus from 1-3 day-old-newborn rats (Long-Evans). Small blocks of tissue ([…]1mm^3) were incubated in papain (20 units ml^-1; Worthington-Cooper) for 30 minutes. The tissue was dissociated into a single cell suspension by trituration with a fire-polished Pasteur pipette in complete growth medium (Earle's MEM, 20 mM glucose, 50 units/ml penicillin/streptomycin, 5% heat-inactivated fetal calf serum, Serum Extender from Collaborative Research) containing 2.5 mg/ml bovine serum albumin and 2.5 mg/ml trypsin inhibitor (Sigma). The cells were plated onto glass coverslips coated with collagen/poly-D-lysine. Cultures were fed every 3 days by replacing haft the volume of medium. Arabinosylcytosine (5×10^-6 M) was added to the cultures for 1 or 2 days during the first week after plating to suppress the proliferation of non-neuronal cells.
All electrophysiology experiments were performed with the whole-cell mode of patch clamp recording [Hamill, O. D., Marty, A., Neher, E., Sakman, B., and Sigworth, F. J., Pflugers Arch. 391:85-100 (1981)] from neurons grown for 1-3 weeks in culture. Agonists and agonist/antagonist combinations were applied by a U-tube mol (Fenwick et al, J. Physiol. 331:577-597 (1982)) to neurons in whole-cell experiments. The external solution contained (in mM) NaCl 140, KCl 3.5, CaCl2 1, glucose 5, picrotoxinin 0.02, tetrodotoxin (TTX) 5×10^-4, and N-2-hydroxyethyl-piperazine-N'-2-ethanesulfonic acid (HEPES) 10. The pH of this solution was adjusted to 7.4 with NaOH. The internal (patch electrode) solution contained (mM) Cs-methanesulfonate 120, CsCl 10, ethyleneglycol-bis-(β-aminoethylether)-N,N,N',N'-tetraacetic acid (EGTA) 10, HEPES 10 (pH adjusted to 7.0 with CsOH). Membrane current was filtered at 4000 Hz (-3dB; 8-pole Bessel) and recorded on magnetic tape for later analysis. Experiments were performed at room temperature (20°-25° C.). [Sources of chemicals: N-methyl-D-aspartate, Cambridge Research Biochemicals; pirotoxinin, Sigma Chemical Company; salts for recording solutions, Aldrich (Gold Label) or Alfa (Puratronic). [^3 H]Kainate and [3H]CPP and [^3 H]AMPA were purchased from Dupont/NEN (Boston, Mass.)].
Repetitive applications (every 30 s) to the same cell produced currents which varied less than 5% over a period of at least 30 minutes.

Compound | IC50 [1] | further results
COc1ccc2c(c1)C1CN(C)C2Cc2ccc(Br)cc21 (racemic) [(±)-3-Br-7-OMe--N--Me-IDDC, 3-Bromo-7-methoxy-N-methyl-5-(iminomethano)-10,11-dihydro-5H-dibenzo[a,d]cycloheptene] | 0.643 µM | –
COc1ccc2c(c1)C1CNC2Cc2ccc(Br)cc21 (racemic) [(±)-3-Br-7-OMe-IDDC, 3-bromo-7-methoxy-5-(iminomethano)-10,11-dihydro-5H-dibenzo[a,d]cycloheptene] | 0.114 µM | –
CN1CC2c3cc(Br)ccc3CC1c1ccccc12 (racemic) [(±)-3-Br--N--Me-IDDC, 3-bromo-N-methyl-5-(iminomethano)-10,11-dihydro-5H-dibenzo[a,d]cycloheptene] | 1.04 µM | –
Brc1ccc2c(c1)C1CNC(C2)c2ccccc21 (racemic) [(±)-3-Br-IDDC, 3-bromo-5-(iminomethano)-10,11-dihydro-5H-dibenzo-[a,d]cycloheptene] | 0.041 µM | –
COc1ccc2c(c1)C1CNC2Cc2ccc(Cl)cc21 (racemic) [(±)-3-Cl-7-OMe-IDDC, 3-chloro-7-methoxy-5-(iminomethano)-10,11-dihydro-5H-dibenzo[a,d]cycloheptene] | 0.113 µM | –
Clc1ccc2c(c1)C1CNC(C2)c2ccccc21 (racemic) [(±)-3-Cl-IDDC] | 0.0642 µM | –
Fc1ccc2c(c1)C1CNC(C2)c2ccccc21 (racemic) [(±)-3-F-IDDC] | 0.0294 µM | –
Ic1ccc2c(c1)C1CNC(C2)c2ccccc21 (racemic) [(±)-3-Iodo-IDDC, 3-iodo-5-(iminomethano)-10,11-dihydro-5H-dibenzo-[a,d]cycloheptene] | 0.16 µM | –
Nc1ccc2c(c1)C1CNC(C2)c2ccccc21 (racemic) [(±)-3-NH2-IDDC, 3-amino-5-(iminomethano)-10,11-dihydro-5H-dibenzo[a,d]cycloheptene] | 0.486 µM | –
COc1ccc2c(c1)C1CNC(C2)c2ccccc21 (racemic) [(±)-3-OMe-IDDC, 3-methoxy-5-(iminomethano)-10,11-dihydro-5H-dibenzo-[a,d]cycloheptane] | 0.168 µM | –
CC12CNC(Cc3ccccc31)c1ccccc12 (racemic) [(±)-5-Me-IDDC, 5-methyl-10,5-(iminomethano)-10,11-dihydro-5H-dibenzo[a,d]cycloheptene] | 0.119 µM | IC50 [2]: 0.125 µM
Clc1ccc2c(c1)C1CNC2Cc2ccccc21 (racemic) [(±)-7-Cl-IDDC, 7-Chloro-5-(iminomethano)-10,11-dihydro-5H-dibenzo-[a,d]cycloheptene] | 0.69 µM | –
COc1ccc2c(c1)C1CNC2Cc2ccccc21 (racemic) [(±)-7-OMe-IDDC, 7-Methoxy-5-(iminomethano)-10,11-dihydro-5H-dibenzo-[a,d]cycloheptene] | 0.332 µM | –
CC12NC(Cc3ccccc31)c1ccccc12 (single isomer, unassigned) [MK-801, 5-methyl-10,11-dihydro-5H-dibenzo[a,d]cycloheptene-5,10-imine, reference compound] | – | inward current on serial applications with NMDA [3]: the inward current became progressively smaller with serial applications; recovery from inhibition of NMDA current [3]: required repeated applications of NMDA alone and was speeded by holding the membrane potential at positive voltages
Clc1ccc2c(c1)C1CNC(C2)c2ccccc21 (single isomer, unassigned; (+)) [(+)-3-Chloro-IDDC, (+) 3-Chloro-5-(iminomethano)-10,11-dihydro-5H-dibenzo-[a,d]cycloheptene] | 0.014 µM | –
Fc1ccc2c(c1)C1CNC(C2)c2ccccc21 (single isomer, unassigned; (+)) [(+)-3-Fluoro-IDDC, (+)-3-fluoro-5-(iminomethano)-10,11-dihydro-5H-dibenzo-[a,d]cycloheptene] | 0.018 µM | –
Clc1ccc2c(c1)C1CNC(C2)c2ccccc21 (single isomer, unassigned; (-)) [(-)-3-Chloro-IDDC, (-)-3-Chloro-5-(iminomethano)-10,11-dihydro-5H-dibenzo-[a,d]cycloheptene] | 0.11 µM | –
CN1C[C@H]2c3ccccc3C[C@@H]1c1ccccc12 [(+)-N--Me-IDDC, N-methyl-10,5-(iminomethano)-10,11-dihydro-5H-dibenzo[a,d]cycloheptene] | 0.0654 µM | inward current on serial applications with NMDA [3]: Serial applications evoked progressively smaller currents; rate of recovery from blockade compared with MK-801 ([3]; 10 uM, relative to MK-801): somewhat more rapid than the rate of recovery of responses following MK-801; inhibition of NMDA current ([3]; 10 uM, 50 uM NMDA + 1 uM glycine, -60 mV): inhibited the NMDA current in a use-dependent and voltage-dependent manner; recovery from inhibition of NMDA current [3]: reversed only with prolonged or repeated application of NMDA; affinity for the PCP receptor compared with MK-801 ([2]; relative to MK-801): lower affinity than MK-801 for the PCP receptor; IC50 [2]: 0.8 ± 0.009 µM
CN[C@H](CC(=O)O)C(=O)O [NMDA, N-methyl-D-aspartate, reference compound] | – | inward whole-cell current ([3]; 50 uM NMDA + 1 uM glycine, three second applications, -60 mV): 100-1000 pA
